Experimental findings from paper PMC6326523, “A high-throughput screen to identify novel small molecule inhibitors of the Werner Syndrome Helicase-Nuclease (WRN)” (PLoS ONE, 2019) are described below.

Holding throughout (type): biochemical
Test [1] addresses T1, WRN helicase domain fragment (Homo sapiens, UniProt Q14191).
T1 construct: GST (N); made in house
The test can be described thus: WRN-hel-f2 protocol qHTS confirmatory (15 compound confirmatory assay). The note with it: NA = Not Active. As to the method:
The structures of the members of this collection are available in the PubChem portal https://pubchem.ncbi.nlm.nih.gov/. For both the 350,000 small molecule collection and the LOPAC^1280 screens, 3 μL of GST-WRN500-946 or reaction buffer only were dispensed using a solenoid-valve nanoliter dispenser into a black 1536-well plate (Greiner). Twenty three nL of each serially diluted compound (0.08–50 μM for the LOPAC screen and 0.003–114 μM for the larger library screen) or control were added to each well using a Kalypsys pintool equipped with a 1536-pin array. Plates were incubated at room temperature for 15 min, followed by initiation of the reactions via the addition of 1 μL of substrate (100 nM FORKF and 2 mM ATP final concentrations). Plates were transferred to a ViewLux high-throughput CCD imager and fluorescence was measured in kinetic mode using an excitation filter of 525 nm and emission filter of 598 nm.
Background: qHTS replaces the single test concentration by a dilution series.

Test [2] deals with T2, full-length FANCJ helicase (Homo sapiens, UniProt Q9BX63).
T2 construct: Full length recombinant WRN [18], BLM [19], and FANCJ [20] proteins were purified from insect cells; made in house; host or cells: insect cells
T2 sequence (Q9BX63 1-1249): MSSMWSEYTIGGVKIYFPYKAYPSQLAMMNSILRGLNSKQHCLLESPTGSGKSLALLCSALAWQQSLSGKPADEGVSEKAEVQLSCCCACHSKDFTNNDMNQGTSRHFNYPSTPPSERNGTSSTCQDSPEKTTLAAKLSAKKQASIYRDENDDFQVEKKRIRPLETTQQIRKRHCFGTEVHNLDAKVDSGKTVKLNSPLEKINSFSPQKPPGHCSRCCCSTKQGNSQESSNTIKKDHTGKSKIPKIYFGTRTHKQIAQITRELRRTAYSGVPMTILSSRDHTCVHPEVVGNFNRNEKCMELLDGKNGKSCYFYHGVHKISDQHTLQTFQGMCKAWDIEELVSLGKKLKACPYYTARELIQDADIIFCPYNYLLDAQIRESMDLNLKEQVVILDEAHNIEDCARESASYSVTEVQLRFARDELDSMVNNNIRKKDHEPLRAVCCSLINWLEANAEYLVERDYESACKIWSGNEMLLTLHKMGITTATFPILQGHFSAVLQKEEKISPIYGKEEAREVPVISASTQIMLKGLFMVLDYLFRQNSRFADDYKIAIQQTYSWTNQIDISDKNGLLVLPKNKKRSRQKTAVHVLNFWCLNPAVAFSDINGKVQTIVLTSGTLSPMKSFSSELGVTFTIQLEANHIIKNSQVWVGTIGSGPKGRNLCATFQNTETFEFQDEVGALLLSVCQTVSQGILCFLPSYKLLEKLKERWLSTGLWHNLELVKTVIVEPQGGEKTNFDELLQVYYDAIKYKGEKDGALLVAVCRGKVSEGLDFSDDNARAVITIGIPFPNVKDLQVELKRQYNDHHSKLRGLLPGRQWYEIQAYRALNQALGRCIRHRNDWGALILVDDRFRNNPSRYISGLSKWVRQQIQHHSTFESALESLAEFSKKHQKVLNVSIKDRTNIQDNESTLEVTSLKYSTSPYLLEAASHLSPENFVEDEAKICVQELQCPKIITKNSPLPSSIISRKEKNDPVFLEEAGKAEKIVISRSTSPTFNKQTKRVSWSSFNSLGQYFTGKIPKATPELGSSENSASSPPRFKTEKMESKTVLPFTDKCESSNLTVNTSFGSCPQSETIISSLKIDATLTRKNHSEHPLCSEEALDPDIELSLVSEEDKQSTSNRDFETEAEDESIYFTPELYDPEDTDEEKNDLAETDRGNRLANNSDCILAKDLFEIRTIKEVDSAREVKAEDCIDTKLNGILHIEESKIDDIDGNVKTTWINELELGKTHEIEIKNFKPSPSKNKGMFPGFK
Briefly: Radiometric helicase assay, full-length FANCJ. Conditions: for IC50: full-length FANCJ 5 nM, FORKR 0.5 nM. As to the method:
(§1) Fifteen μL of reaction buffer was added to a microcentrifuge tube followed by the addition of 1 μL of selected compounds (0.5–100 μM final concentration) or DMSO. One μL of WRN (full length), RECQ1, FANCJ, BLM or control was added to each reaction and incubated at room temperature for 15 min. Three μL of substrate (0.5 nM FORKR and 2 mM ATP final concentrations) were added to all reactions which were incubated at 37°C for 15 min. Reactions were stopped with the addition of 20 μL of 2X STOP dye containing EDTA, glycerol, bromphenol blue and xylene cyanol. Samples were electrophoresed for 1.5 hr at 200 V on a 12% non-denaturing PAGE gel in 1X TBE Buffer.
(§2) Three compounds identified from the cherry-picked set were tested for their effects on WRN exonuclease activity (20 nM) on the FORKR DNA substrate (1 nM) as well as DNA unwinding by full-length BLM (0.1 nM) and FANCJ (5 nM) helicases, which belong to the same Superfamily 2 as WRN [25], to assess their specificity for inhibition of WRN-catalyzed unwinding of the FORKR DNA substrate (0.5 nM). […] Nonetheless, these two compounds were also further tested in cell-based assays to assess their effects on proliferation.
(§3) Supplementary file pone.0210525.s005.TIF: S5 Fig Specificity of select WRN inhibitors for inhibition of other human helicases. (A) Quantitation of full-length BLM helicase (0.1 nM) activity on the FORKR DNA substrate (0.5 nM) with increasing concentration of each compound (0–100 μM). (B) Quantitation of full-length FANCJ (5 nM) helicase activity on the FORKR DNA substrate (0.5 nM) with increasing concentration of each compound (0–100 μM). (TIF) Click here for additional data file.

The target of another test is T3, full-length BLM helicase (Homo sapiens, UniProt P54132).
T3 construct: Full length recombinant WRN [18], BLM [19], and FANCJ [20] proteins were purified from insect cells; made in house; host or cells: insect cells
Briefly: Radiometric helicase assay, full-length BLM. Conditions: for IC50: full-length BLM 0.1 nM, FORKR 0.5 nM. How it is done: as §1, §2, §3

T3 sequence (P54132 whole entry): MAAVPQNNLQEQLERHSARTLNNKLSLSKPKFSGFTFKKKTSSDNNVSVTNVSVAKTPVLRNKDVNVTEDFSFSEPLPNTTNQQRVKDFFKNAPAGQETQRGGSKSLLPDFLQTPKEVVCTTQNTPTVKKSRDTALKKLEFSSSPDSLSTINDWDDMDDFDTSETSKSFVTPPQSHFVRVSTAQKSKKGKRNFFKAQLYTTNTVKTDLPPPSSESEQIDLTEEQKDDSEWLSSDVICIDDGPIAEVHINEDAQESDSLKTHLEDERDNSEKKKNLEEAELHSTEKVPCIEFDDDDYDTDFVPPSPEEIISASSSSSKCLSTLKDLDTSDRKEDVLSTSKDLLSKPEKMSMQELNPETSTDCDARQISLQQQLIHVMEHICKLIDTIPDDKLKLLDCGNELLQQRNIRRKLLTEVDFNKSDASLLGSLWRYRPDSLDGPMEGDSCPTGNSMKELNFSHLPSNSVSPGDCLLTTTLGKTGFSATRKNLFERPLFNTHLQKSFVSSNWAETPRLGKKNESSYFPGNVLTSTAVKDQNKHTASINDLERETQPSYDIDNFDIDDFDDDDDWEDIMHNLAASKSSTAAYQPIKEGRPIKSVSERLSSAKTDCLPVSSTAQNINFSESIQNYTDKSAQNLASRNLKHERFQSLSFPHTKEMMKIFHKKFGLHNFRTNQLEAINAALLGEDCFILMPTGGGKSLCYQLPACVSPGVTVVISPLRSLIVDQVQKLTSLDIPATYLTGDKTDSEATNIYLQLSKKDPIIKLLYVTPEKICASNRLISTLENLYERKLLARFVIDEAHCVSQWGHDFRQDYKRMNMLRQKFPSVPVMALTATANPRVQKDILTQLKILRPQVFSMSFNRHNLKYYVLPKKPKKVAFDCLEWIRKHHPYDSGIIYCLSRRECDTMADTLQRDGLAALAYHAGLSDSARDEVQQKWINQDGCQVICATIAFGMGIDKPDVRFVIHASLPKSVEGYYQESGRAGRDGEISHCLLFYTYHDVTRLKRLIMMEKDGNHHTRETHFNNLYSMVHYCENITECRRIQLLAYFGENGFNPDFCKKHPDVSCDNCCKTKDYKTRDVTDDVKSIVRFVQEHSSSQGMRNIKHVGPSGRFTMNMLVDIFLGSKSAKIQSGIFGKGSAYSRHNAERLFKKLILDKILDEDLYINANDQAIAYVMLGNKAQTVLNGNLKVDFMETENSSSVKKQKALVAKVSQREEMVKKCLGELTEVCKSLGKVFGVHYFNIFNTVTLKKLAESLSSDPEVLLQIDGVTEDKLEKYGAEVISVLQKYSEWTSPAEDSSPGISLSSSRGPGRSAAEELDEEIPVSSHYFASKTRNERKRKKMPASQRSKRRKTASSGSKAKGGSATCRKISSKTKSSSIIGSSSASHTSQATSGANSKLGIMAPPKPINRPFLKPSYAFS
T1 sequence (Q14191 500-946): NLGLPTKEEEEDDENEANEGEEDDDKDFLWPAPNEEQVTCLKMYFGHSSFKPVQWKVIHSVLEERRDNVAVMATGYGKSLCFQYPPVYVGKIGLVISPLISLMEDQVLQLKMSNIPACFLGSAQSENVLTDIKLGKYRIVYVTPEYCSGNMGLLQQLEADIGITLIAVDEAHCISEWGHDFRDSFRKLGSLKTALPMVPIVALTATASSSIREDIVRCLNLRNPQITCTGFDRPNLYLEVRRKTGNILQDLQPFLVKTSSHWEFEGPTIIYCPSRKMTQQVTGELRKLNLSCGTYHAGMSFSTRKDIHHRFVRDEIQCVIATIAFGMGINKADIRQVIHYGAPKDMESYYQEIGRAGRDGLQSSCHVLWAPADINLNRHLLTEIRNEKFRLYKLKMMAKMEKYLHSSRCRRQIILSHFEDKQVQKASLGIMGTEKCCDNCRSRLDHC

The term IC50 denotes the midpoint of a concentration-inhibition curve. For `Cc1ccc(-c2csc(NS(=O)(=O)c3cccc(F)c3)n2)o1` [MLS002251300-02], the IC50 in test [1] was found to be 20 µM; in test [2] it was 28.5 ± 2 µM; against full-length BLM helicase, 13 ± 2.6 µM. Moreover, the “IC50 for WRN helicase inhibition fold less than that observed for FANCJ” value in test [2] (WRN vs FANCJ) amounted to 6 fold. In addition, the “IC50 for WRN helicase inhibition fold less than that observed for BLM” value on full-length BLM helicase (WRN vs BLM) is on record as 2.5 fold.
For the compound `COc1ccc2nc(O)c(-c3noc(-c4ccccc4)n3)cc2c1` [NCGC00063279-02], the results for the IC50 (in test [1]; in test [2]; against full-length BLM helicase) were 2.5 µM, 13.9 ± 2.6 µM and 46.1 µM, respectively.
In the case of `COc1ccc2nc(O)c(-c3noc(-c4ccc(F)cc4)n3)cc2c1` [NCGC00029283-02], the IC50 in test [1] was determined as 0.45 µM; in test [2], 3.4 ± 0.5 µM; against full-length BLM helicase it was 12.5 ± 1.8 µM.
